Test results from ChEMBL document CHEMBL1909046, “DrugMatrix in vitro pharmacology data”.

How the values were obtained:
[1] = target: 5-hydroxytryptamine receptor 4 (Cavia porcellus, UniProt O70528); type: cell membranes, Dunkin-Hartley, Striatum, Membrane; note: in other assays of this panel Not Active means under 50% inhibition at 10 µM
[2] = target: Melanocortin receptor 3 (Homo sapiens, UniProt P41968); type: cell membranes, HEK293, Membrane; details: hek293; note: in other assays of this panel Not Active means under 50% inhibition at 10 µM
Melanocortin receptor 3, sequence (P41968 whole entry): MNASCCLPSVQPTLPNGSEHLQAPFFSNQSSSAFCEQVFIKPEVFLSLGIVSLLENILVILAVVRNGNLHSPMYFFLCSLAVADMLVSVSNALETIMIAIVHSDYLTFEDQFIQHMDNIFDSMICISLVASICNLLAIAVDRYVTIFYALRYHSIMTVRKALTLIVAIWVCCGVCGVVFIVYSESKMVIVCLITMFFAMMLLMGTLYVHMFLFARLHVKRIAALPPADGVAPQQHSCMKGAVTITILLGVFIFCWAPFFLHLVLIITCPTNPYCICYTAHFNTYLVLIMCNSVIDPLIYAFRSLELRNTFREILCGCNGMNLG

[3] = DRUGMATRIX: Potassium Channel [KATP] radioligand binding (ligand: [3H] Glyburide); type: cell membranes, Membrane; details: hit-t15; Not Active = under 50% inhibition at 10 µM
[4] = target: Cytochrome P450 2E1 (Homo sapiens, UniProt P05181); details: bti-tn-5b1-4; note: in other assays of this panel Not Active means under 50% inhibition at 10 µM
Cytochrome P450 2E1, sequence (P05181 whole entry): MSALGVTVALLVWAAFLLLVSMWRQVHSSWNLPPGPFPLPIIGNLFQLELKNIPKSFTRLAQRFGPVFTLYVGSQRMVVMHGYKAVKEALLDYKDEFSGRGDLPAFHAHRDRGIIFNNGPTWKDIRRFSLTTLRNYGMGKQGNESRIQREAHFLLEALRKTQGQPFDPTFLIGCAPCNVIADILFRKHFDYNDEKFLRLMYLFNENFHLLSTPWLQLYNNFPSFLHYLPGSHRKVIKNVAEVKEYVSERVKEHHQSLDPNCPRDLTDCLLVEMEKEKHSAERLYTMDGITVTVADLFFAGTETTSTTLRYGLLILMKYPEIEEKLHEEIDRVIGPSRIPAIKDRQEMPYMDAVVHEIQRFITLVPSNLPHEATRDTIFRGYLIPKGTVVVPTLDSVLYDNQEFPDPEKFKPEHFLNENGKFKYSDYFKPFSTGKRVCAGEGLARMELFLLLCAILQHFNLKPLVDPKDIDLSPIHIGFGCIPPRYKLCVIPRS

[5] = DRUGMATRIX: Purinergic P2X radioligand binding (ligand: [3H] alpha, beta-Methylene-ATP); type: cell membranes, Oryctolagus cuniculus, New Zealand albino, Urinary bladder, Membrane; details: Not Active = under 50% inhibition at 10 µM
[6] = target: D(3) dopamine receptor (Homo sapiens, UniProt P35462); assay: DRUGMATRIX: Dopamine D3 radioligand binding (ligand: [3H] Spiperone); type: cell membranes, CHO, Membrane; details: for Ki: read-out: Ki
D(3) dopamine receptor, sequence (P35462 whole entry): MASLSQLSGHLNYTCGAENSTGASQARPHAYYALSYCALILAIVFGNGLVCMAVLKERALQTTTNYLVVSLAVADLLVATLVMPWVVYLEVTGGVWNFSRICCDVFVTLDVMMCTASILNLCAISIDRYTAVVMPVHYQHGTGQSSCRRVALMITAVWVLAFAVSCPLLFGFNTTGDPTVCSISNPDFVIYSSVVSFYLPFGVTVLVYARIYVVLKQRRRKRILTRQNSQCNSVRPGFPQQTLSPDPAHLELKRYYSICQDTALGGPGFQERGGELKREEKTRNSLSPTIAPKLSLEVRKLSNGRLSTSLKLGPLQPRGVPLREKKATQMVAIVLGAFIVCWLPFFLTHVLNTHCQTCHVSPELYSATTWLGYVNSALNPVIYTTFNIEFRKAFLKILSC

[7] = target: Cytochrome P450 2C19 (Homo sapiens, UniProt P33261); details: bti-tn-5b1-4; note: in other assays of this panel Not Active means under 50% inhibition at 10 µM
Cytochrome P450 2C19, sequence (P33261 whole entry): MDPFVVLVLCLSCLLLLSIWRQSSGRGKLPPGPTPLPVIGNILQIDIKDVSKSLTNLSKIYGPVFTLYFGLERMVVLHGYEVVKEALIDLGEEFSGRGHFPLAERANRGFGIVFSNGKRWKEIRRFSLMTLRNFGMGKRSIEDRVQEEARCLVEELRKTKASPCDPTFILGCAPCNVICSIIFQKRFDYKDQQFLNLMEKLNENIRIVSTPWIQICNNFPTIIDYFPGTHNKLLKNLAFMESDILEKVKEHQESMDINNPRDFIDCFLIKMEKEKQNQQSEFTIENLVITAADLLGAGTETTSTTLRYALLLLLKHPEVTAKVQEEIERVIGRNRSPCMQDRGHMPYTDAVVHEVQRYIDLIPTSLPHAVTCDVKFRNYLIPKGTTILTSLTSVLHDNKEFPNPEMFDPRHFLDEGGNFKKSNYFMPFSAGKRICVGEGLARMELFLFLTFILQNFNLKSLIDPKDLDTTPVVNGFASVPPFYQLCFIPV

5-hydroxytryptamine receptor 4, sequence (O70528 whole entry): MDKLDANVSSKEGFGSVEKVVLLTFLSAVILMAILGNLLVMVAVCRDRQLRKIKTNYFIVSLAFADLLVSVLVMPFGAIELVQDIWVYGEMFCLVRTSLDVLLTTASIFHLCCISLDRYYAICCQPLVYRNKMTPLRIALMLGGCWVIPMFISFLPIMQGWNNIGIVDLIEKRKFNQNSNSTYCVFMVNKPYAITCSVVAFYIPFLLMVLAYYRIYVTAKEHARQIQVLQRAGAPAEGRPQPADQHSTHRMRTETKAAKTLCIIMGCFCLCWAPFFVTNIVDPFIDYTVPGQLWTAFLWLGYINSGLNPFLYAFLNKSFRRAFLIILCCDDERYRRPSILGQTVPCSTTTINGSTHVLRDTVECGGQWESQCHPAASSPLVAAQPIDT

Row | SMILES | IC50 [1] | IC50 [2] | IC50 [3] | Ki [3] | IC50 [4] | Ki [4] | IC50 [5] | Ki [5] | IC50 ([6]; cho) | IC50 [7] | Ki [7] | IC50 ([6]; read-out: IC50) [µM] | Ki [6] [µM]
1 | Oc1ccccc1 [PHENOL] | Not Active | Not Active | Not Active | Not Active | Not Active | Not Active | Not Active | Not Active | Not Active | Not Active | Not Active |  | 
2 | Oc1ncnc2[nH]ncc12 [ALLOPURINOL] | Not Active | Not Active | Not Active | Not Active | Not Active | Not Active | Not Active | Not Active | Not Active | Not Active | Not Active |  | 
3 | COC(=O)Nc1nc2ccc(Sc3ccccc3)cc2[nH]1 [FENBENDAZOLE] | Not Active | Not Active | Not Active | Not Active | Not Active | Not Active | Not Active | Not Active | Not Active | Not Active | Not Active |  | 
4 | C[C@@H]1[C@H](O)[C@@H](C)/C=C/C=C/C=C/C=C/C=C/C=C/C=C/[C@H](O[C@@H]2O[C@H](C)[C@@H](O)[C@H](N)[C@@H]2O)C[C@@H]2O[C@](O)(C[C@@H](O)C[C@@H](O)[C@H](O)CC[C@@H](O)C[C@@H](O)CC(=O)O[C@H]1C)C[C@H](O)[C@H]2C(=O)O [AMPHOTERICIN B] | Not Active | Not Active | Not Active | Not Active | Not Active | Not Active | Not Active | Not Active | Not Active | Not Active | Not Active |  | 
5 | CCO [ALCOHOL] | Not Active | Not Active | Not Active | Not Active | Not Active | Not Active | Not Active | Not Active | Not Active | Not Active | Not Active |  | 
6 | COc1cc(/C=C/C(=O)O)ccc1O [FERULATE] | Not Active | Not Active | Not Active | Not Active | Not Active | Not Active | Not Active | Not Active | Not Active | Not Active | Not Active |  | 
7 | CNC[C@H](O)c1ccc(O)c(O)c1 [EPINEPHRINE] | Not Active | Not Active | Not Active | Not Active | Not Active | Not Active | Not Active | Not Active | Not Active | Not Active | Not Active |  | 
8 | CC1(COc2ccc(CC3SC(=O)NC3=O)cc2)CCCCC1 (stereo unspecified) [CIGLITAZONE] | Not Active | Not Active | Not Active | Not Active | Not Active | Not Active | Not Active | Not Active |  |  |  | 26.7 | 9.07
9 | NC(N)=Nc1nc(CSCCC(N)=NS(N)(=O)=O)cs1 [FAMOTIDINE] | Not Active | Not Active |  |  | Not Active | Not Active | Not Active | Not Active | Not Active | Not Active | Not Active |  | 
10 | Nc1nc(F)nc2c1ncn2[C@@H]1O[C@H](CO)[C@@H](O)[C@@H]1O [FLUDARABINE] | Not Active | Not Active | Not Active | Not Active | Not Active | Not Active | Not Active | Not Active | Not Active | Not Active | Not Active |  | 
11 | NC(=O)NC(=O)Cc1ccccc1 [PHENACEMIDE] | Not Active | Not Active | Not Active | Not Active | Not Active | Not Active | Not Active | Not Active | Not Active | Not Active | Not Active |  | 
12 | Nc1ccc(C(=O)O)c(O)c1 [AMINOSALICYLIC ACID] | Not Active | Not Active | Not Active | Not Active | Not Active | Not Active | Not Active | Not Active | Not Active | Not Active | Not Active |  | 
13 | O=c1[nH]cnc2c1ncn2[C@H]1CC[C@@H](CO)O1 [DIDANOSINE] | Not Active | Not Active | Not Active | Not Active | Not Active | Not Active | Not Active | Not Active | Not Active | Not Active | Not Active |  | 
14 | NC(=O)CN1CCCC1=O | Not Active | Not Active | Not Active | Not Active | Not Active | Not Active | Not Active | Not Active | Not Active | Not Active | Not Active |  | 
15 | Clc1cc(Cl)c(OCC#CI)cc1Cl [HALOPROGIN] | Not Active | Not Active | Not Active | Not Active | Not Active | Not Active | Not Active | Not Active |  | Not Active | Not Active | 0.488 | 0.166
16 | O=C(NCCN1CCOCC1)c1ccc(Cl)cc1 [MOCLOBEMIDE] | Not Active | Not Active | Not Active | Not Active | Not Active | Not Active | Not Active | Not Active | Not Active | Not Active | Not Active |  | 
17 | Cc1c(N)nc([C@H](CC(N)=O)NC[C@H](N)C(N)=O)nc1C(=O)N[C@H](C(=O)N[C@H](C)[C@@H](O)[C@H](C)C(=O)N[C@H](C(=O)NCCc1nc(-c2nc(C(=O)NCCC[S+](C)C)cs2)cs1)[C@@H](C)O)[C@@H](O[C@@H]1O[C@@H](CO)[C@@H](O)[C@H](O)[C@@H]1O[C@H]1O[C@H](CO)[C@@H](O)[C@H](OC(N)=O)[C@@H]1O)c1c[nH]cn1.[Br-] [BLEOMYCIN A2] | Not Active | Not Active | Not Active | Not Active | Not Active | Not Active | Not Active | Not Active | Not Active | Not Active | Not Active |  | 
18 | CC(C)Cc1ccc([C@H](C)C(=O)O)cc1 [DEXIBUPROFEN] | Not Active | Not Active | Not Active | Not Active | Not Active | Not Active | Not Active | Not Active | Not Active | Not Active | Not Active |  | 
19 | COc1ccc(C[C@H](N)C(=O)N[C@H]2[C@@H](O)[C@H](n3cnc4c(N(C)C)ncnc43)O[C@@H]2CO)cc1 [PUROMYCIN] | Not Active | Not Active | Not Active | Not Active | Not Active | Not Active | Not Active | Not Active | Not Active | Not Active | Not Active |  | 
20 | CCC1(c2ccccc2)C(=O)NC(=O)NC1=O [PHENOBARBITAL] | Not Active | Not Active | Not Active | Not Active | Not Active | Not Active | Not Active | Not Active | Not Active | Not Active | Not Active |  | 
21 | O=C1c2ccccc2C(=O)C1c1ccccc1 [PHENINDIONE] | Not Active | Not Active | Not Active | Not Active | Not Active | Not Active | Not Active | Not Active | Not Active | Not Active | Not Active |  | 
22 | O=C(O)CNCP(=O)(O)O [GLYPHOSATE] | Not Active | Not Active | Not Active | Not Active |  |  | Not Active | Not Active | Not Active |  |  |  | 
23 | NS(=O)(=O)c1cc(C(=O)O)c(NCc2ccco2)cc1Cl [FUROSEMIDE] | Not Active | Not Active | Not Active | Not Active | Not Active | Not Active | Not Active | Not Active | Not Active |  |  |  | 
24 | CCN(CCO)CCCC(C)Nc1ccnc2cc(Cl)ccc12 (stereo unspecified) [HYDROXYCHLOROQUINE] | Not Active | Not Active | Not Active | Not Active | Not Active | Not Active | Not Active | Not Active | Not Active |  |  |  | 
25 | COc1cc([C@@H]2c3cc4c(cc3[C@H](O)[C@H]3COC(=O)[C@H]23)OCO4)cc(OC)c1OC [PODOFILOX] | Not Active | Not Active | Not Active | Not Active | Not Active | Not Active | Not Active | Not Active | Not Active |  |  |  | 
26 | C[C@H]1C[C@H]2[C@@H]3CCC4=CC(=O)C=C[C@]4(C)[C@@]3(F)[C@@H](O)C[C@]2(C)[C@@]1(O)C(=O)CO [BETAMETHASONE] | Not Active | Not Active | Not Active | Not Active | Not Active | Not Active | Not Active | Not Active | Not Active |  |  |  | 
27 | CC(C)NCC(O)COc1ccc(CC(N)=O)cc1 (stereo unspecified) [ATENOLOL] | Not Active | Not Active | Not Active | Not Active | Not Active | Not Active | Not Active | Not Active | Not Active |  |  |  | 
